Assay results reported in US20250367162A1, “Additive for Food, Drink and Pharmaceutical Products to Improve Health and Well-Being” (RB2 Enterprises, LLC, priority 2021, published 2025).

What was measured:
[1] = bioavailability (share of consumed substance entering the bloodstream); format: in vivo; details: mixed with an effective amount of a hydrogenated substance such as Erythritol
Experimental: For use as an additive 50 that accomplishes the various objectives and which provides the aspects of the present invention, the present inventor solved several problems with regard to use of Dihydromyricetin 14a. One such problem is that Dihydromyricetin 14a, on its own, has a solubility of approximately 0.2 mg per ml of fluid, which is very low. Because the solubility of Dihydromyricetin 14a is so low, it cannot be effectively utilized as a medicine or supplement, despite the well known benefits of this flavonoid 14 for people (as well as certain animals). Another issue with Dihydromyricetin 14a is that, on its own, it has a bioavailability of approximately four percent, meaning that only about four percent of consumed Dihydromyricetin 14a enters a person's bloodstream and stays long enough to be biologically effective for product user 56. […] Mixing an effective amount of one or more solvents 60, such as a bicarbonate substance 60a or an alcohol solvent 60b, increases the solubility of Dihydromyricetin 14a from approximately 0.2 mg per ml of fluid to approximately 114 mg per ml of fluid.

stability / shelf-life = format: physicochemical
[2] = on its own; share of consumed Dihydromyricetin that enters a person's bloodstream; cited from earlier work

- bioavailability of Dihydromyricetin [1]: greatly improves the bioavailability
- stability (stability / shelf-life; on its own, light sensitivity and other shelf-life limitations): poor stability
SMILES: O=C1c2c(O)cc(O)cc2O[C@H](c2cc(O)c(O)c(O)c2)[C@H]1O [Dihydromyricetin 14a, Dihydromyricetin]
- shelf-life of Dihydromyricetin (stability / shelf-life; mixed with an effective amount of Erythritol and/or other hydrogenated substances): extends the Dihydromyricetin 14a shelf-life
- bioavailability [2]: approximately four
